Here are results for 7 substances from patent US20050079566A1, “Analytical methods for determination of proteolytic cleavage at specific sites” (priority 2003, published 2005).

No end group written: not given here. *: point of attachment. Biotin = O=C1N[C@H]2[C@H](CS[C@H]2CCCCC(=O)*)N1

Assay [1] has as its system HYB 100-01-POD. Briefly: ELISA: effect of peptide length and N-terminus on the signal with TAL reagent and HYB 100-01-POD. The assay is classed as binding. As to conditions: Example 6, FIG. 6, activated TAL, HYB 100-01-POD 0.5 μg/ml; for signal: peptide coupled to Immobilizer plate. The procedure: PBS (100 μl) was added to all wells of an Immobilizer 96-well microtiter plate (Nunc). The relevant peptides (SEQ ID NO:11, 13, 14, 15 and 16) were all diluted to 50 μg/ml in PBS and 100 μl of individual solutions added to the first well of the respective row. […] The peptides were allowed to couple to the plate for two hours at 20-25° C. Residual coupling activity was reduced by the addition of 50 μl of 50 mM Tris Buffer, pH 8.0, for 30 minutes. Each well was then washed with 100 μl of PBS. To 0.5 ml of TAL reagent (Zhanjiang A&C Biologicals Ltd) was added 15 EU of Control Standard Endotoxin (CSE) followed by 12 ml of endotoxin-free PBS, and 100 μl of this solution was then added to each well. The plate was then incubated at 37° C. for 45 minutes.
For orientation: An ELISA detects its analyte on a solid surface through an enzyme-linked reagent.

Assay [2] relates to TAL reagent. To be noted: Example 4, FIG. 4; peptide at 40 ng/ml, detection with HYB 100-01-POD.
Procedure: Under precautions to keep endotoxin contamination to a minimum, a solution of peptide (SEQ ID NO:12) at a concentration of 40 ng/ml in LAL reagent water (LRW) (Cambrex) was added to all wells of a streptavidin Immobilizer 96-well microtiter plate (Nunc) at 100 μl per well. After incubation for 10 minutes at 20-25° C., 100 μl of Control Standard Endotoxin (CSE) solution of 10 EU/ml were added to the first well of the appropriate rows. Serial doubling dilutions were then carried out across the plate leaving the last well as a blank without endotoxin. A 0.5-ml vial of TAL reagent (Zhanjiang A&C Biologicals Ltd) was reconstituted in 0.5 ml of LRW. This was diluted 12-, 15-, 30- and 40-fold in endotoxin-free 50 mM Tris buffer (Cambrex), whereupon 100 μl of a given dilution were added to each well of the corresponding row. The microtiter plate was incubated at 37° C. for 45 minutes. The reaction was stopped by quickly emptying the wells followed by 3×2 minute washes with stop buffer (25% isopropanol v/v in 100 mM glycine-HCl, pH 2.4). The plate was then equilibrated with 2×10-30-second washes with wash buffer. HYB 100-01-POD was diluted to 0.5 μg/ml in dilution buffer and added to each well at 100 μl/well. […] The color reaction was stopped by adding 100 μl of 1 M sulfuric acid to each well and the absorbance measured at 450 nm in a microplate reader, subtracting the absorbance at 620 nm.
Assay [3] relates to antisera. Briefly: Inhibition ELISA: cross-reactivity of antisera with peptides of different length. The assay is classed as binding, mice. As to conditions: antisera against octapeptide QESGVSGR
On the procedure: Immunization of mice: Separate groups of BCG-vaccinated mice were immunized with six doses (10 μg carrier) of each of these conjugates at 14-day intervals and their sera tested by ELISA in wells coated with the corresponding peptide coupled at molar ratios of 5:1 or 2.5:1 to the opposite carrier at a coating concentration of 10 μg/ml (with respect to carrier) in 0.05 M sodium carbonate buffer, pH 9.6.

Consider “Biocytin-VQAITDKDEISGRGF [Peptide SEQ ID NO:16]”, for which the signal entry in assay [1] is “slightly lower signal”.
“Biotin-VQAITDKDEISGRGF [Peptide SEQ ID NO:12]”: the “cleavage by endotoxin-activated TAL” value in assay [2] was “site-specific cleavage”.
Take AQESGVSGR [nonapeptide]: the cross-reactivity in assay [3] is > 100%.
For GVSGR [pentapeptide], the cross-reactivity entry in assay [3] (result in words) is on record as “little or no cross-reactivity”.
As for ITDKDEISGR [Peptide SEQ ID NO:15], the “coating concentration at which the maximal (or similar) signal is reached” value in assay [1] was in the range of 12.5 to 25 µg/mL.
As for DKDEISGR [Peptide SEQ ID NO:14], the signal result in assay [1] is reported as “almost totally lost”.
Consider “Biocytin-VQAITDKDEISGR [Peptide SEQ ID NO:11]”, for which, in assay [1], the “coating concentration at which the maximal (or similar) signal is reached” value was “about 0.05 μg/ml” and the signal result was “much stronger signal”.
